From paper PMC3835680, “Inhibition of Nutlin-Resistant HDM2 Mutants by Stapled Peptides” (PLoS ONE, 2013)
“Also recorded” adds a separate entry of the source. FAM = carboxyfluorescein

Assays:
[1] = tested on: wild-type HDM2 / p53 transactivation in p53/MDM2-null DKO cells; test: p53 reporter assay in p53/MDM2-null DKO cells, wild-type HDM2; type: cell-based, mouse; conditions: stapled peptide, 20 µM, mean ± SD (n=2)
Description: (§5) Mouse embryonic fibroblast p53/Mdm2 double-knockout (DKO) cells (a kind gift from Guillermina Lozano) [30] and H1299 p53^−/− cells [31] were maintained in Dulbecco's modified Eagle's medium (DMEM) with 10% (v/v) foetal calf serum (FCS) and 1% (v/v) penicillin/streptomycin. The cells were seeded at 1.0 × 10^5 cells/well in 6-well plates, 24 hours prior to transfection. Cells were co-transfected with wild-type or mutant HDM2 plasmid, p53-pcDNA plasmid, LacZ reporter plasmid and luciferase plasmid using TurboFect transfection reagent (Thermo Scientific) according to the manufacturer’s instructions. […] In all cases, the total amount of plasmid DNA transfected per well was equilibrated by addition of the parental vector pcDNA3.1a(+).
(§6) DKO cells were harvested 24hours after transfection and β-galactosidase activities were assessed using the Dual-light System (Applied Biosystems) according to the manufacturer's protocol. The β-galactosidase activity was normalized with luciferase activity for each sample.

[2] = tested on: HDM2-p53 interaction (Q24R HDM2); test: In vitro pull-down assay, p53-HDM2 Q24R; type: binding; conditions: 10 µM, IVT-expressed proteins
Excerpt: (§1) Single mutant HDM2 clones were generated by Quickchange mutagenesis (Stratagene) of parental HDM2-PET22b using appropriate primers 1-6. The constructs were amplified with primers petF2 and petR to make HDM2 amplicons with T7 promoter and ribosome binding site required for in vitro transcription-translation (IVT) of wild-type or mutant HDM2. Primers 1-6 were used to introduce mutations into the parental pCMV-HDM2 mammalian expression construct by Quickchange mutagenesis. Both the HDM2-PET22b and pCMV-HDM2 constructs additionally encode a C-terminal HA tag.
(§2) Protein G beads (Invitrogen) were incubated with anti-HA (1 µg per 10 µL beads) for 1 hour in PBST-3%BSA and subsequently washed twice in PBST-0.1%BSA. IVT-expressed wild-type or mutant HDM2 was incubated with the beads on a rotator for 30 mins. […] IVT-expressed p53 was added to the mixture and incubation allowed for 1 hour. Beads were finally washed thrice in PBST-0.1%BSA and thrice with PBS, and bound proteins eluted by resuspension in 20 µL SDS-PAGE loading buffer and incubation at 95°C for 5 minutes. Both the eluates and inputs were subjected to electrophoresis, transferred to nitrocellulose membranes and probed for p53 with horseradish peroxidise conjugated DO1 antibody (Santa Cruz) or for HDM2 with anti-HA antibody followed by rabbit anti-mouse (Dakocytomation).

[3] = tested on: M62A HDM2 / p53 transactivation in p53/MDM2-null DKO cells; test: p53 reporter assay in p53/MDM2-null DKO cells, HDM2 M62A; type: cell-based, mouse; conditions: stapled peptide, 20 µM, mean ± SD (n=2)
Description: as §5, §6

HDM2 (1-125) Q24R = target: T1, HDM2 (1-125) Q24R (Homo sapiens, UniProt Q00987, Q24R); test: Fluorescence anisotropy, competitive titration, HDM2 Q24R; type: binding; conditions: Q24R compared to wild-type
T1 construct: using purified HDM2 (1-125) and carboxyfluorescein (FAM) labeled 12-1 peptide; GST (N, cleaved yes); made in house; host or cells: E. coli BL21 DE3
Description: (§3) Cells harbouring the GST fusion constructs were grown in LB medium at 37°C to an OD600 of ~0.6 and induction was carried out with 1 mM IPTG at room temperature. Cells were harvested by centrifugation and the cell pellets were resuspended in 50 mM Tris pH 8.0, 10% sucrose and then sonicated. The sample was next centrifuged for 60 mins at 17,000 g at 4°C. The supernatant was applied to a 5 mL FF GST column (Amersham) pre-equilibrated in wash buffer (50 mM Tris-HCl pH 8.0, 150 mM NaCl, 1 mM DTT). The column was then further washed by 6 volumes of wash buffer. HDM2 constructs were then purified from the column by cleavage with Precission protease (GE Lifesciences). 10 units of precission protease, in one column volume of wash buffer, were injected onto the column. The cleavage reaction was allowed to proceed overnight at 4°C. The cleaved protein was then eluted off the column with wash buffer. Protein fractions were analyzed with SDS page gel and concentrated using Centricon (3.5 kDa MWCO) concentrator. […] Protein fractions were analyzed with SDS page gel and concentrated using a Centricon (3.5 kDa MWCO) concentrator, Millipore.
(§4) All titrations were carried out in triplicate. Curve-fitting was carried out using Prism 4.0 (GraphPad).

[4] = tested on: HDM2-p53 interaction (wild-type HDM2); test: In vitro pull-down assay, p53-HDM2 wild-type; type: binding; conditions: 10 µM, IVT-expressed proteins
Excerpt: as §1, with “tag. The plasmid p53-PET22b was also amplified with petF2 and petR to make template for IVT of wild-type p53.” for “tag.”
as §2, with “Both the eluates and inputs were subjected to electrophoresis, transferred to nitrocellulose membranes and probed for p53 with horseradish peroxidise conjugated DO1 antibody (Santa Cruz) or for HDM2 with anti-HA antibody followed by rabbit anti-mouse (Dakocytomation).” left out

[5] = tested on: HDM2-p53 interaction (M62A HDM2); test: In vitro pull-down assay, p53-HDM2 M62A; type: binding; conditions: 10 µM, IVT-expressed proteins
Excerpt: as §1, §2

HDM2 (1-125) P20L = target: T2, HDM2 (1-125) P20L (Homo sapiens, UniProt Q00987, P20L); test: Fluorescence anisotropy, competitive titration, HDM2 P20L; type: binding; conditions: P20L compared to wild-type
T2 construct: using purified HDM2 (1-125) and carboxyfluorescein (FAM) labeled 12-1 peptide; GST (N, cleaved yes); made in house; host or cells: E. coli BL21 DE3
Description: as §3, §4

HDM2 (1-125) M62A = target: T3, HDM2 (1-125) M62A (Homo sapiens, UniProt Q00987, M62A); test: Fluorescence anisotropy, competitive titration, HDM2 M62A; type: binding; conditions: M62A compared to wild-type
T3 construct: using purified HDM2 (1-125) and carboxyfluorescein (FAM) labeled 12-1 peptide; GST (N, cleaved yes); made in house; host or cells: E. coli BL21 DE3
Description: as §3, §4

[6] = tested on: wild-type and mutant (M62A, Q24R) HDM2; p53-dependent genes in HCT116 p53^+/+ cells; test: RT-qPCR of p53-regulated genes in HCT116 p53+/+ cells transfected with HDM2 variants; type: cell-based; conditions: Nutlin 10 µM; M62A and Q24R compared to wild-type; 24 h post-transfection; RT-qPCR (n=2)
Excerpt: In all cases, the total amount of plasmid DNA transfected per well was equilibrated by addition of the parental vector pcDNA3.1a(+).

HDM2 Y104G = conditions: mutation in secondary Nutlin binding site; ref [54]; cited from earlier work
Excerpt: Studies have shown that K51 of HDM2 interacts with E23 and E25 of HDM ...

HDM2 M62 = conditions: ref [19]; cited from earlier work
Excerpt: Modelling studies show the hydrophobic hydrocarbon chain comprising the staple interacts with HDM2 in the vicinity of M62 (Figure 6). Whilst the M62A mutation impacts negatively on binding of both stapled peptide and p53 compared to wild type HDM2, the presence of additional “fall-back” interactions (apart from M62, see below) results in marginal overall loss of binding by these ligands. […] Mutation to alanine causes marg ...

[7] = tested on: p53 (1-81) - HDM2 (7-134) interaction, wild-type, Q24R and M62A, in BHK cells; test: Fluorescent 2-Hybrid (F2H) co-localization assay; type: cell-based; conditions: 1 hour at 37°C, titration, difference particularly evident at 1-10 µM for Nutlin, n=4
Description: Interaction (%) was determined as the ratio of cells showing co-localization of fluorescent signals at the nuclear spot to the total number of evaluated cells. To enable comparison between the experiments, a normalization step was performed. For each independent experiment, the interaction ratios in treated wells were normalized to the interaction ratios in control (untreated) wells:
I % = 100% * Interactions_treated/Interactions_untreated
In this way, the control values in each experiment are taken to be 100%. For automated image acquisition an INCell Analyzer 1000 with a 20X objective (GE Healthcare) was used. Automated image segmentation and analysis was performed with the corresponding INCell Workstation 3.6 software. At least 100 co-transfected cells were analyzed per well. Titrations were carried out independently three to five times.
For the F2H assay, significance (t-test) is denoted relative to the percentage interactions observed for wild-type HDM2 under the indicated treatment conditions. For transcript analysis by real-time PCR, two-way ANOVA with Bonferroni post test was performed using GraphPad Prism software.

[8] = target: T4, HDM2 (1-125) M62A, purified (human, UniProt Q00987 1-125, M62A); test: fluorescence polarisation; competitive fluorescence anisotropy titrations against FAM-labelled 12-1 peptide with purified HDM2 (1-125); apparent Kds; PBS pH 7.4, 3% DMSO, 0.1% Tween 20
T4 construct: also called HDM2-M62A; source: E. coli BL21 DE3, purified (GST column, PreScission cleavage, ResourceS)

[9] = target: T5, HDM2 (1-125) P20L, purified (human, UniProt Q00987 1-125, P20L); test: as above
T5 construct: source: E. coli BL21 DE3, purified (GST column, PreScission cleavage, ResourceS)

[10] = target: T6, HDM2 (1-125) Q24R, purified (human, UniProt Q00987 1-125, Q24R); test: as above
T6 construct: source: E. coli BL21 DE3, purified (GST column, PreScission cleavage, ResourceS)

[11] = target: T7, HDM2 (1-125), wild-type, purified (human, UniProt Q00987 1-125); test: as above
T7 construct: source: E. coli BL21 DE3, purified (GST column, PreScission cleavage, ResourceS)
T7 sequence (Q00987 1-125): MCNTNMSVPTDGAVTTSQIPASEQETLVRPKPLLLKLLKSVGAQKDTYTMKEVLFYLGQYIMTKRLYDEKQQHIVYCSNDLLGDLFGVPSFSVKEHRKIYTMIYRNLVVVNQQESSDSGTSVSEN

T5 sequence (Q00987 1-125 P20L): as the sequence (Q00987 1-125) above, with P20L counted along it
T4 sequence (Q00987 1-125 M62A): as the sequence (Q00987 1-125) above, with M62A counted along it
T6 sequence (Q00987 1-125 Q24R): as the sequence (Q00987 1-125) above, with Q24R counted along it
T2 sequence (Q00987 1-125 P20L): as the sequence (Q00987 1-125) above, with P20L counted along it
T3 sequence (Q00987 1-125 M62A): as the sequence (Q00987 1-125) above, with M62A counted along it
T1 sequence (Q00987 1-125 Q24R): as the sequence (Q00987 1-125) above, with Q24R counted along it

CC(=O)N[C@H](C(=O)N[C@@H](CO)C(=O)N[C@@H](Cc1ccccc1)C(=O)N[C@]1(C)CCCCCCC=CCCC[C@@](C)(C(N)=O)NC(=O)[C@H](CC(C)C)NC(=O)[C@H](CC(C)C)NC(=O)[C@H](C)NC(=O)[C@H](Cc2c[nH]c3cc(Cl)ccc23)NC(=O)[C@H](Cc2ccc(O)cc2)NC(=O)[C@H](CCC(=O)O)NC1=O)[C@@H](C)O [MO11]
p53 reporter activity restored (percentage of activity with p53-only transfection) [1]: 51% | Inhibition of p53-HDM2 interaction (pull-down, Western blot) [2]: able to abrogate the mutant HDM2-p53 interaction as efficiently as Nutlin inhibits the wild-type HDM2-p53 interaction; also recorded: inhibition of p53 binding to both WT and mutant HDM2 | p53 reporter activity restored (percentage of activity with p53-only transfection) [3]: 47% | Change of binding affinity versus wild-type HDM2 (HDM2 (1-125) Q24R): not perturbed | Inhibition of p53-HDM2 interaction (pull-down, Western blot) [4]: strong repression of the HDM2-p53 interaction; also recorded: inhibition of p53 binding to both WT and mutant HDM2 | Inhibition of p53-HDM2 interaction (pull-down, Western blot) [5]: able to abrogate the mutant HDM2-p53 interaction as efficiently as Nutlin inhibits the wild-type HDM2-p53 interaction; also recorded: inhibition of p53 binding to both WT and mutant HDM2 | Change of binding affinity versus wild-type HDM2 (HDM2 (1-125) P20L): not perturbed | Change of binding affinity versus wild-type HDM2 (HDM2 (1-125) M62A): very slight perturbation of binding

COc1ccc(C2=N[C@@H](c3ccc(Cl)cc3)[C@@H](c3ccc(Cl)cc3)N2C(=O)N2CCNC(=O)C2)c(OC(C)C)c1 [Nutlin]
p53 activation of p21, gadd45α and 14-3-3σ transcript levels, mutants versus wild-type HDM2 [6]: significant reduction of p53 transcriptional activity was observed for the M62A and Q24R mutants compared to wild-type | Binding to HDM2 Y104G (HDM2 Y104G): recalcitrant to Nutlin binding | Effect of loss of M62 contact on Nutlin binding (HDM2 M62): major loss of binding | Dissociation of p53-HDM2 complex, mutants (Q24R, M62A) versus wild-type (F2H) [7]: reduced dissociation of mutant N-terminal domains from p53, indicating Nutlin resistance; also recorded: increased dissociation of WT-p53 complex compared to Q24R/M62A-p53 complexes | Inhibition of p53-HDM2 interaction (pull-down, Western blot) [4]: strong repression of the HDM2-p53 interaction; also recorded: inhibits p53-HDM2 interaction

P53 peptide (ligand of Table 1)
Kd [8]: 29.6 nM | Kd [9]: 17.2 nM | Kd [10]: 10.4 nM | Kd [11]: 13.9 nM

B1: carboxyfluorescein (FAM) labeled 12-1 peptide (FAM-RFMDYWEGL-NH2) (peptide)
peptide: {FAM}-RFMDYWEGL-NH2
notes: that it is not a natural p53 stretch is my surmise
binding result ([8]; both partners purified): binds | binding result ([9]; both partners purified): binds | binding result ([10]; both partners purified): binds | binding result ([11]; both partners purified): binds
